Source: US20250152585A1, “PHARMACEUTICAL COMPOUND” (Duke Street Bio Limited, priority 2022, published 2025)
Like-named read-outs stand apart in the source and are kept apart here.

Tests used:
[1] = molecular target: T1, full length N-terminally FLAG-tagged PARP1 (Homo sapiens, UniProt P09874); assay: PARP1 biochemical DELFIA assay (auto-PARylation); design: recombinant full length human N-terminally FLAG-tagged PARP1
[2] = molecular target: T2, N-terminally FLAG-tagged PARP2 (amino acids 1-583) (Homo sapiens, UniProt Q9UGN5); assay: PARP2 probe displacement HTRF assay; type: binding; conditions: binned Kd
T2 construct: N-terminally FLAG-tagged PARP2 (amino acids 1-583)
T2 sequence (Q9UGN5 whole entry, the tested form may be a part): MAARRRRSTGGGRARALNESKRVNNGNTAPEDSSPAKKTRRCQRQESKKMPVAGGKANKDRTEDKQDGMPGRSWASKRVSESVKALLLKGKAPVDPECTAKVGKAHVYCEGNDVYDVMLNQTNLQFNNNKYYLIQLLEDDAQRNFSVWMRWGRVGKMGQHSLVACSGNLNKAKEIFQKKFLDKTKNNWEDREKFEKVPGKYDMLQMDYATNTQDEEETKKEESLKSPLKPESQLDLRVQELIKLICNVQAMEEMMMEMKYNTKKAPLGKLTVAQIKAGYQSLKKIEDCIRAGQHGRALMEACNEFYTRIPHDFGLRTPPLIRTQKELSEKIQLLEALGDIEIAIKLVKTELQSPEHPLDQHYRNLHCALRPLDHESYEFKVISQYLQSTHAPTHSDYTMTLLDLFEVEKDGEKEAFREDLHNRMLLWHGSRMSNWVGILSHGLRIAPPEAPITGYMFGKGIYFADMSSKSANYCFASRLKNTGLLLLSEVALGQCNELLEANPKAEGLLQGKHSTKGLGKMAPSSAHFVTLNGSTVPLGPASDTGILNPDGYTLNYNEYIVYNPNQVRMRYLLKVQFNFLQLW
Experimental: Data analysis was performed identical as for PARP1.

[3] = molecular target: T1, full length N-terminally FLAG-tagged PARP1; assay: PARP1 probe displacement HTRF assay; conditions: for Selectivity: PARP1 over PARP2, ratio Kd (PARP2)/Kd (PARP1); for Kd: binned Kd
[4] = binned IC50, PARP1 biochemical DELFIA assay
[5] = read-out: PARP1 HTRF, PARP1 probe displacement HTRF
[6] = binned IC50, biochemical auto-PARylation assay
[7] = read-out: PARP1 HTRF, probe displacement HTRF
[8] = PARP1 HTRF, PARP1 probe displacement HTRF

T1 sequence (P09874 whole entry, the tested form may be a part): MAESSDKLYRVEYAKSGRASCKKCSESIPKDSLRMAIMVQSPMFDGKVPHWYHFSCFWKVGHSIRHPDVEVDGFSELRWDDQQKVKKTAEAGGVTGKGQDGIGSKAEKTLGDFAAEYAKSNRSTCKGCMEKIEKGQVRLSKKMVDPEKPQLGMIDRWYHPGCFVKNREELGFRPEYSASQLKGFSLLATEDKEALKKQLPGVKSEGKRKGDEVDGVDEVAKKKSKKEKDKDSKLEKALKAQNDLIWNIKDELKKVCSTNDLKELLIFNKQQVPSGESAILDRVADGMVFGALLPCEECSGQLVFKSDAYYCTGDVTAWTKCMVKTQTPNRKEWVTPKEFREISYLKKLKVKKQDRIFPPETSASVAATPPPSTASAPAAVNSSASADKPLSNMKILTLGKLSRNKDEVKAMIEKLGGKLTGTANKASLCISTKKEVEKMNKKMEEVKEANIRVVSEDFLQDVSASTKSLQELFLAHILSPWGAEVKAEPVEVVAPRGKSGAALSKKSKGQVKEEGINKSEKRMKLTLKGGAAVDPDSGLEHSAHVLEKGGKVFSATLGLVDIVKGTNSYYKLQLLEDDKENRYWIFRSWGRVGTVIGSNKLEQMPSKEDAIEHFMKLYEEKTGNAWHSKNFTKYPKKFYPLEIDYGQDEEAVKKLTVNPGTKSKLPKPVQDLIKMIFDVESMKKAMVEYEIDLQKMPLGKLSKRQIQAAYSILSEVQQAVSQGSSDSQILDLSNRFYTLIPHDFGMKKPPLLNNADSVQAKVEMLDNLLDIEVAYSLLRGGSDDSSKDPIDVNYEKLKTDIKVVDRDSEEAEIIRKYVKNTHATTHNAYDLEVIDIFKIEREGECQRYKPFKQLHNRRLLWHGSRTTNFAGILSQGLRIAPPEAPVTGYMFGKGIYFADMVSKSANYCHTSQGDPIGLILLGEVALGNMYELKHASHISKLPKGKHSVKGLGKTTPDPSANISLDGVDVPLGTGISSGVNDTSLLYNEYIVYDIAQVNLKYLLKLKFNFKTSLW

IC50 [1, 4] [nM] | Kd ([2]; PARP2 probe displacement HTRF) [nM] | Kd [3, 5] [nM] | IC50 [1, 6] [nM] | Kd ([2]; probe displacement HTRF) [nM] | Kd [3, 7] [nM] | Kd [3, 8] [nM] | Structure (SMILES) | Selectivity ([3]; probe displacement HTRF)
10 to 100 | 1000 to 10000 | 10 to 100 |  |  |  |  | CCc1ccc(C2CCN(C3CCN(c4ccc(C(=O)NCCF)nc4)CC3)C2)[nH]c1=O (single isomer, unassigned) [Compound 165b] | +++ (+++ indicate a value of at least 100)
10 to 100 | > 10000 | 10 to 100 |  |  |  |  | CNC(=O)c1ccc(N2CCC(N3CCCC(c4nc5ccccc5c(=O)[nH]4)C3)CC2)c(C(F)F)n1 (racemic) [Compound 156rac] | ++ (++ indicates a value of 50 to less than 100)
 |  |  | < 10 | 1000 to 10000 | < 10 |  | CCc1ccc(C2CCN(C3CCN(c4ccc(C(=O)NC5CC5)nc4C#N)CC3)C2)[nH]c1=O (single isomer, unassigned) [Compound 409a] | +++ (+++ indicate a value of at least 100)
 |  |  | < 10 | 100 to 1000 | < 10 |  | N#Cc1ccc(N2CCC(N3CCC(c4cc5cccc(F)c5c(=O)[nH]4)C3)CC2)nc1 (single isomer, unassigned) [Compound 340a] | +++ (+++ indicate a value of at least 100)
 |  |  | < 10 | 10 to 100 | < 10 |  | N#Cc1nc(C(=O)NC2CC2)ccc1N1CCC(N2CCC(c3cc4ccc(F)cc4c(=O)[nH]3)C2)CC1 (single isomer, unassigned) [Compound 397b] | +++ (+++ indicate a value of at least 100)
10 to 100 | > 10000 |  |  |  |  | 10 to 100 | CNC(=O)c1ccc(OCCN2CCCC(Cc3nc4ccccc4c(=O)[nH]3)C2)cn1 (single isomer, unassigned) [Compound 14b, N-methyl-5-(2-(3-((4-oxo-3,4-dihydroquinazolin-2-yl)methyl)piperidin-1-yl)ethoxy)picolinamide] | +++ (+++ indicate a value of at least 100)
 |  |  | < 10 | 1000 to 10000 | < 10 |  | CNS(=O)(=O)c1ccc(N2CCC(N3CCC(c4cc5ccccc5c(=O)[nH]4)C3)CC2)cc1 (single isomer, unassigned) [Compound 346a] | +++ (+++ indicate a value of at least 100)
10 to 100 | 1000 to 10000 | 10 to 100 |  |  |  |  | CNC(=O)c1ccc(N2CCC(N3CCC(c4nc5ccccc5c(=O)[nH]4)C3)CC2)c(C(F)(F)F)n1 (single isomer, unassigned) [Compound 139b] | +++ (+++ indicate a value of at least 100)
< 10 | > 10000 |  |  |  |  | < 10 | CNC(=O)c1ccc(N2CCC(C(=O)N3CCC(c4nc5ccccc5c(=O)[nH]4)CC3)CC2)cn1 [Compound 36] | +++ (+++ indicate a value of at least 100)
< 10 | 1000 to 10000 | < 10 |  |  |  |  | CNC(=O)c1ccc(N2CCC(N3CCC(c4cc5c(F)cccc5c(=O)[nH]4)C3)CC2)cn1 (single isomer, unassigned) [Compound 172a] | +++ (+++ indicate a value of at least 100)
< 10 | 1000 to 10000 | < 10 |  |  |  |  | CNC(=O)c1ccc(N2CCC(N3CCC(c4nc5ccccc5c(=O)[nH]4)C3)CC2)c(Cl)n1 (racemic) [Compound 104rac] | +++ (+++ indicate a value of at least 100)
 |  |  | < 10 | 100 to 1000 | < 10 |  | N#Cc1ccc(N2CCC(N3CCC(c4cc5cccc(F)c5c(=O)[nH]4)C3)CC2)c(Cl)c1 (single isomer, unassigned) [Compound 378a] | +++ (+++ indicate a value of at least 100)
 |  |  | < 10 | 10 to 100 | < 10 |  | CNC(=O)c1ncc(N2CCC(N3CCC(c4cc5ccc(F)cc5c(=O)[nH]4)C3)CC2)cc1F (single isomer, unassigned) [Compound 395b] | ++ (++ indicates a value of 50 to less than 100)
 |  |  | < 10 | 100 to 1000 | < 10 |  | CNC(=O)c1ccc(N2CCC(N3CCC(c4cc5c(F)ccc(F)c5c(=O)[nH]4)C3)CC2)c(F)n1 (racemic) [Compound 268rac] | +++ (+++ indicate a value of at least 100)
 |  |  | 100 to 1000 | 100 to 1000 | 100 to 1000 |  | CNC(=O)c1ccc(N2CCC(N3CCC(c4cc5cccc(F)c5c(=O)[nH]4)C3)CC2)cc1F (single isomer, unassigned) [Compound 281b] | − (− indicates a value of less than 10)
 |  |  | < 10 | 1000 to 10000 | < 10 |  | CCc1ccc(C2CCN(C3CCN(c4ccc(C#N)cc4Cl)CC3)C2)[nH]c1=O (single isomer, unassigned) [Compound 377b] | +++ (+++ indicate a value of at least 100)

IC50 [1, 4] [nM] | Kd ([2]; PARP2 probe displacement HTRF) [nM] | Kd [3, 5] [nM] | IC50 [1, 6] [nM] | Kd ([2]; probe displacement HTRF) [nM] | Kd [3, 7] [nM] | Kd [3, 8] [nM] | Structure (SMILES) | Selectivity ([3]; probe displacement HTRF)
100 to 1000 | 1000 to 10000 | 100 to 1000 |  |  |  |  | CCc1nc(C(=O)NC)ccc1N1CCC(N2CCCC(c3nc4ccccc4c(=O)[nH]3)C2)CC1 (single isomer, unassigned) [Compound 112a] | − (− indicates a value of less than 10)
 |  |  | 100 to 1000 | > 10000 | 100 to 1000 |  | CNC(=O)c1ccc(N2CCC(N3CCC(c4cc5c(C(F)(F)F)nn(C)c5c(=O)[nH]4)C3)CC2)cn1 (racemic) [Compound 392rac] | + (+ indicates a value of 10 to less than 50)
 |  |  | < 10 | 10 to 100 | < 10 |  | CS(=O)(=O)NC(=O)c1ccc(N2CCC(N3CCC(c4cc5ccccc5c(=O)[nH]4)C3)CC2)cc1 (single isomer, unassigned) [Compound 342b] | + (+ indicates a value of 10 to less than 50)
10 to 100 | 100 to 1000 | 10 to 100 |  |  |  |  | CCNC(=O)c1ccc(N2CCC(N3CCC(c4nc5ccccc5c(=O)[nH]4)C3)CC2)cn1 (single isomer, unassigned) [Compound 111a] | + (+ indicates a value of 10 to less than 50)
100 to 1000 | > 10000 | 100 to 1000 |  |  |  |  | CCc1cnc(C2CCCN(CC3CCN(c4ccc(C(=O)NC)nc4)CC3)C2)[nH]c1=O (racemic) [Compound 39rac] | + (+ indicates a value of 10 to less than 50)
 |  |  | 10 to 100 | > 10000 | 10 to 100 |  | CNC(=O)c1cnc(N2CCC(N3CCC(c4cc5ccccc5c(=O)[nH]4)C3)CC2)s1 (racemic) [Compound 253rac] | + (+ indicates a value of 10 to less than 50)
 |  |  | 10 to 100 | 1000 to 10000 | 10 to 100 |  | CCc1ccc(C2CCN(C3CCN(c4ccc(C(=O)NC5CC5)nc4)CC3)C2)[nH]c1=O (single isomer, unassigned) [Compound 338b] | ++ (++ indicates a value of 50 to less than 100)
< 10 | 100 to 1000 | < 10 |  |  |  |  | CNC(=O)c1ccc(N2CCC(N3CCC(c4nc5c(F)cc(F)cc5c(=O)[nH]4)C3)CC2)cn1 (single isomer, unassigned) [Compound 181b] | +++ (+++ indicate a value of at least 100)
10 to 100 | 1000 to 10000 | 10 to 100 |  |  |  |  | CNC(=O)c1ccc(N2CCC(CN3CCCC(c4nc5ccccc5c(=O)[nH]4)C3)CC2)cn1 (single isomer, unassigned) [Compound 9a] | +++ (+++ indicate a value of at least 100)
< 10 | 1000 to 10000 | < 10 |  |  |  |  | CNC(=O)c1ccc(N2CCC(N3CCC(c4nc5ccccc5c(=O)[nH]4)C3)CC2)c(C)n1 (single isomer, unassigned) [Compound 125b] | +++ (+++ indicate a value of at least 100)
 |  |  | < 10 | 10 to 100 | < 10 |  | CNC(=O)c1cc(Cl)c(N2CCC(N3CCC(c4cc5ccc(F)cc5c(=O)[nH]4)C3)CC2)cn1 (single isomer, unassigned) [Compound 236b] | + (+ indicates a value of 10 to less than 50)
< 10 | > 10000 |  |  |  |  | < 10 | CNC(=O)c1ccc(N2CCC(CN3CCC(c4nc5ccccc5c(=O)[nH]4)CC3)CC2)cn1 [Compound 8, N-methyl-5-(4-((4-(4-oxo-3,4-dihydroquinazolin-2-yl)piperidin-1-yl)methyl)piperidin-1-yl)picolinamide] | +++ (+++ indicate a value of at least 100)
 |  |  | < 10 | 100 to 1000 | < 10 |  | CNC(=O)c1ccc(N2CCC(N3CCC(c4cc5ncc(F)cc5c(=O)[nH]4)C3)CC2)c(F)n1 (single isomer, unassigned) [Compound 324b] | +++ (+++ indicate a value of at least 100)
10 to 100 | > 10000 | 10 to 100 |  |  |  |  | CNC(=O)c1ccc(N2CCC(N3CCCC(c4ccc(C(C)C)c(=O)[nH]4)C3)CC2)cn1 (racemic) [Compound 132rac] | +++ (+++ indicate a value of at least 100)
10 to 100 | 1000 to 10000 | 10 to 100 |  |  |  |  | CNC(=O)c1ccc(N2CCC(N3CCCC(c4nc5c(Cl)cccc5c(=O)[nH]4)C3)CC2)cn1 (single isomer, unassigned) [Compound 44b] | + (+ indicates a value of 10 to less than 50)
 |  |  | < 10 | 100 to 1000 | < 10 |  | CNC(=O)c1ccc(N2CCC(N3CC4(c5nc6ccccc6c(=O)[nH]5)CCC3C4)CC2)cn1 (single isomer, unassigned) [Compound 245a] | +++ (+++ indicate a value of at least 100)
